Source: patent US9365597B2, “Mitochondria-targeted inhibitors of cytochrome c peroxidase for protection from apoptosis” (Brock University, priority 2011, dated 2016)

What was measured:
C57BL/6NTac female mice = assay: Health of non-irradiated mice after i.p. injection; type: in vivo, mouse; details: i.p. 5 mg per kg body weight, period of study 52 days
mouse embryonic cells = assay: Superoxide production in mouse embryonic cells (dihydroethidium, flow cytometry); type: cell-based; details: cells with or without radiation treatment (10 Gy); 2.5 and 5 μM, 18 hrs
Description: Cells were γ-irradiated at a dose of 10 Gy and then incubated with different concentrations of TPP-IOA or TPP-ISA (2.5 and 5 μM) for 18 hrs. To estimate superoxide generation, cells were incubated with 5 μM of dihydroethidium (DHE) for 30 min at 37° C. Collected cells were re-suspended in phosphate buffered saline (PBS) and fluorescence of 2-hydroxyethidium was analyzed using FACScan supplied with CellQuest software. Data are means±S.D., n=3. *p<0.01 vs. control cells (without any treatment).
A superoxide-meditated oxidation-sensitive fluorogenic dye, dihydroethidium (DHE), was utilized for assessments of superoxide production. Briefly, cells were incubated with 5 μM of DHE for 30 min. Cells were collected by trypsinization and re-suspended in PBS. The fluorescence of 2-hydroxyethidium was measured using a FACScan flow cytometer (BD Biosciences, San Jose, Calif.) supplied with the CellQuest software. Mean fluorescence intensity from 10,000 cells was acquired using a 585/42-nm band-pass filter.

cyt c/TOCL complexes = target: T1, cyt c/TOCL complexes (Equus caballus, UniProt P00004); assay: Peroxidase activity of cyt c/TOCL complexes, H2O2-induced oxidation of Amplex Red to resorufin; type: biochemical; details: cyt c 1 μM, CL/cyt c 25:1, 50 μM Amplex Red, 50 μM H2O2, 20 min
T1 construct: purchased Sigma (St. Louis, Mo.)
T1 sequence (P00004 2-105 limits assumed, one chain of several): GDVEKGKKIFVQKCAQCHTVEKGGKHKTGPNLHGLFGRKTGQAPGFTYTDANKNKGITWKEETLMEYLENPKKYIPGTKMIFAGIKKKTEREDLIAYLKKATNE
Description: Conditions: cyt c (1 μM), H2O2 (50 μM), Amplex Red (50 μM). Experiments were performed in 20 mM HEPES buffer (pH 7.4) containing DTPA (100 μM), cyt c was incubated with DOPC/TOCL liposomes (1:1) at a ratio of TOCL:cyt c of 25:1.
Peroxidase activity of cyt c was assessed by oxidation of Amplex Red, etoposide or TLCL (tetra-linoleoyl-cardiolipin). Measurements of Amplex Red oxidation were performed using fluorescence of its oxidation product resorufin. Cyt c (1 μM) was incubated with tetra-oleoyl-cardiolipin (TOCL) containing liposomes (CL/cyt c ratio 25:1). Then 50 μM Amplex Red and 50 μM H2O2 were added, and the incubation proceeded for an additional 20 min. Fluorescence was detected by employing a “Fusion α” universal microplate analyzer and by using an excitation wavelength of 535 nm and an emission wavelength of 590 nm. EPR spectra of etoposide phenoxyl radicals were recorded at 25° C. in gas permeable Teflon tubings (inner diameter, 0.8 mm; thickness, 0.013; Alpha Wire Corp., Elizabeth, N.J.). Volume of samples was 60 μL. The spectra were recorded under the following conditions: 335.3 mT, center field; 2 mT, sweep width; 0.04 mT, field modulation; 10 mW, microwave power; 0.1 s, time constant; 2 min, time scan. The time course of the etoposide radical EPR signal was obtained by repeated scanning of the field (0.15 mT, sweep width; 335.3 mT, center field) corresponding to a part of the EPR signal. Peroxidase activity of mitochondria was determined by the formation of resorufin from Amplex Red. Isolated mouse liver mitochondria (0.6 mg/ml) were incubated in the presence of 100 μM Amplex Red and 2 mM tert-butyl hydroperoxide (tBOOH). After incubation at room temperature for 20 min, fluorescence of resurufin was measured.
Small unilamellar liposomes were prepared from dioleoylphosphatidylcholine (DOPC) and TOCL (1:1 ratio) or DOPC and TLCL (4:1 ratio) by sonication in HEPES buffer (20 mM with 100 μM diethylene triamine pentaacetic acid (DTPA) (pH 7.4) 3×60 sec, relaxation time 2 min, 4° C.).
Peroxidase activity of cyt c was assessed by oxidation of Amplex Red, etoposide or TLCL as described above.

SH-SY5Y cells = assay: Oxygen-glucose deprivation (OGD) of SH-SY5Y cells, viability by WST-1 assay; type: cell-based, human; details: for fold change in viability compared to control cells: 24 hours of recovery after 8 hour OGD, mean±SEM
Description: SH-SY5Y cells were harvested from 100 mm diameter culture plates once 70-80% confluence was reached, and were then seeded on 96-well plates at a density of 3.0×10^4 cells per well in normal growth media. The cells were then incubated overnight (approximately 16 hours) under normal growth conditions to allow for attachment to plates. During this time, DMEM (supplemented with 25 mM HEPES, 4 mM L-glutamine, and 584 mg/L […]) with no glucose or serum to be used for OGD was incubated on a culture plate in the 3% oxygen, 5% carbon dioxide, 37° C. incubator to reduce the oxygen levels within the media. In the following morning, this plate of media was placed inside of a custom-built anoxic chamber that was continuously pumped with 95% nitrogen-5% carbon dioxide gas mixture from Praxair Canada (St. Catharines, ON, Canada) to further reduce/eliminate the amount of oxygen present in the media. 0.2% oxygen level within the chamber was reached within approximately 10 minutes, and the plate of media was incubated for 30 minutes under these conditions. After this period, the growth media on the 96-well plates of SH-SY5Y cells was removed, and carefully replaced with the de-oxygenated DMEM containing no glucose or serum. The plates of cells were then incubated in the anoxia chamber at 0.2% oxygen for 8 hours, continuously pumped with the 95% nitrogen-5% carbon dioxide gas mixture. An oxygen sensor was kept inside of the chamber, and the 0.2% oxygen level was monitored and maintained by a Roxy-1 universal regulator/controller (Sable Systems Int., Las Vegas, Nev., USA). Throughout the duration of the media de-oxygenation and OGD, the anoxic chamber was kept inside of a 37° C. […]
After the 8 hour period of OGD, the glucose/serum-free DMEM was carefully removed from the wells, and replaced with normal growth media containing TPP-IOA. The cells were incubated at their normal growth conditions, and viability was assessed after 24 and 48 hours of recovery with the use of the WST-1 cell proliferation assay.
For measurements, premixed WST-1 cell proliferation reagent was added to the wells of cells (ratio of 1:10 with growth media) cultured on 96-well flat bottomed plates. […] The plate was then shaken thoroughly for 1 minute on a plate shaker, and then absorbance at 450 nm, with a reference wavelength of 650 nm, was measured using a microplate reader (BioTek, Winooski, Vt., USA).
For data analysis, the background control and reference wavelength absorbance readings were subtracted from the 450 nm reading for each sample. The average absorbance reading for the 0 μM TPP-IOA treatment was then set equal to 1, and all sample readings were divided by the mean absorbance of the 0 μM TPP-IOA treatment to obtain a measure of fold change in viability compared to the control.

SMILES | adverse side effects in non-irradiated mice (C57BL/6NTac female mice) | effect on superoxide production (mouse embryonic cells) | inhibition of peroxidase activity of cyt c/TOCL complexes (Amplex Red oxidation) (cyt c/TOCL complexes) | fold change in viability compared to control cells (SH-SY5Y cells; 2.5 μM, p=0.017) [fold] | fold change in viability compared to control cells (SH-SY5Y cells; 5 μM, p=0.0094) [fold] | fold change in viability compared to control cells (SH-SY5Y cells; 10 μM, non-significant p=0.0955) [fold] | viability after 48 hours of incubation (SH-SY5Y cells; 48 hours of recovery after 8 hour OGD)
CCCCCCC(CCCCCCCCCCC(=O)OCCC[P+](c1ccccc1)(c1ccccc1)c1ccccc1)n1ccnc1.[Br-] (stereo not shown) [TPP-ISA] | no adverse side effects were noticed | neither TPP-IOA nor TPP-ISA had any effect | as effective as non-conjugated ISA and IOA | – | – | – | –
CCCCCCC(C/C=C\CCCCCCCC(=O)OCCC[P+](c1ccccc1)(c1ccccc1)c1ccccc1)n1ccnc1.[Br-] (stereo not shown) [TPP-IOA] | no adverse side effects were noticed | neither TPP-IOA nor TPP-ISA had any effect | as effective as non-conjugated ISA and IOA | 1.192±0.058 | 1.356±0.074 | 1.179±0.038 | no significant improvements in viability
